System: aPGA (Achromobacter spp. penicillin G acylase)
Conditions: 0.05 M phosphate buffer, pH 8.0, 35 °C

Compound	Km [µM]
CCCCCC(=O)N[C@H]1CCOC1=O [C06-HSL]	620 ± 100
CCCCCCCC(=O)N[C@H]1CCOC1=O [C08-HSL]	870 ± 10

Source: paper doi:10.1101/2022.01.13.476167v2 (biorxiv, 2022)
